Counter-ions that a name gives are not always drawn.
Legend:
CRACM1/STIM1-CHOK1 = molecular target: T1, CRACM1/STIM1-CHOK1 (Homo sapiens, UniProt Q96D31); test: Patch clamp inhibition of ICRAC current in CRACM1/STIM1-CHOK1 cells; format: cell-based; details: at 500 nM, activity class
T1 construct: Full length human Stim1, CracM1, CracM2 and CracM3 cDNA; Stim1 induced with doxycycline
Procedure: Manual patch clamp experiments are conducted in the tight-seal whole-cell configuration at room temperature (21-25° C.). Patch pipettes are fashioned from borosilicate glass capillary tubes and have resistances between 2-4 MO after filling with standard intracellular solution. High resolution current recordings are acquired with a computer-based patch clamp amplifier system (EPC-10, HEKA, Lambrecht, Germany). All voltages are corrected for a liquid junction potential of 10 mV between external and internal solutions with glutamate as the intracellular anion. Currents are filtered at 2.9 kHz and digitized at 10 μs intervals. Capacitive currents and series resistance are determined and corrected before each voltage ramp using the automatic capacitance compensation of the EPC-10.
In general, a whole cell patch clamp method is used to examine the effects of a compound of the invention on a channel(s) that mediates ICRAC. In such experiments, a baseline ICRAC measurement is established within the first 70 voltage ramps, or 140 seconds, for a patched cell. Then the cells are perfused with the compound to be tested and the effect of the compound on ICRAC is measured for at least an additional 440 to 500 seconds. A compound that modulates ICRAC (e.g., inhibits) is a compound that is useful in the invention for modulating CRAC ion channel activity.
Each compound is diluted from a 10 mM stock in series using DMSO. The final DMSO concentration is always kept at 0.1%.
ICRAC currents are measured using 50 msec voltage ramps between −100 mV to +100 mV. The voltage ramps are stimulated every 2 seconds for the first 70 sweeps, then every 5 seconds for the remainder of the experiment. The membrane potential is held at 0 mV between the test ramps. In a typical experiment, the peak inward currents will develop within 50-100 seconds. Once the ICRAC current is stabilized, the cells are perfused with a test compound in the extracellular solution for at least an additional 500 seconds.
Off-line analysis with the Heka PatchMaster software is used to separate the ICRAC membrane current from the cells basal background currents. In a typical recording, InsP3 stimulated ICRAC currents begin to develop in 6 to 12 seconds after whole cell is established. Therefore, the first 1-4 voltage ramps represent the basal membrane currents in the absence of ICRAC and the average value is subtracted from all subsequent traces. The current value at −80 mV for each ramp trace is then measured and plotted against time. The resulting current versus time data is exported into a Microsoft Excel spreadsheet. The % ICRAC inhibition in each cell is calculated by comparing the amount of current just prior to the compound perfusion to the amount of current after the cells has been perfused with the compound for 440-500 seconds. The IC50 value and Hill coefficient for each compound is estimated by fitting all the individual data points to a single-site Hill equation.
TREx™-CHO cells were transfected with human Stim1 (recombinant DNA in pcDNA4/TO/myc-His™ A with a myc epitope tag in the N-terminal) and either CracM1, CracM2 or CracM3 (recombinant DNA in pcDNA 3.1 with a HA epitope tag in the N-terminal). Stably expressing cells were selected by growing the transfected cells in antibiotics for two to three weeks. Individual cell clones were isolated via serial dilution. […]

IL-2 = test: Inhibition of IL-2 production (Jurkat cells activated with PHA, ELISA); format: cell-based; details: Homo sapiens, Jurkat, Jurkat/PHA/1% FBS
Procedure: Jurkat cells were placed in a 96 well plate (0.5 million cells per well in 1% FBS medium), and then a test compound of this invention was added at different concentrations. After 10 minutes, the cells were activated with PHA (final concentration 2.5 μg/mL) and incubated for 20 hours at 37° C. under 5% CO2. The final volume was 200 μL. Following incubation, the cells were centrifuged, and the supernatants collected and stored at −70° C. prior to assaying for IL-2 production. A commercial ELISA kit (IL-2 Eli-pair, Diaclone Research, Besancon, France) was used to detect production of IL-2, from which dose response curves were obtained. The IC50 value was calculated as the concentration at which 50% of maximum IL-2 production after stimulation was inhibited versus a non-stimulation control.

T1 sequence (Q96D31 whole entry): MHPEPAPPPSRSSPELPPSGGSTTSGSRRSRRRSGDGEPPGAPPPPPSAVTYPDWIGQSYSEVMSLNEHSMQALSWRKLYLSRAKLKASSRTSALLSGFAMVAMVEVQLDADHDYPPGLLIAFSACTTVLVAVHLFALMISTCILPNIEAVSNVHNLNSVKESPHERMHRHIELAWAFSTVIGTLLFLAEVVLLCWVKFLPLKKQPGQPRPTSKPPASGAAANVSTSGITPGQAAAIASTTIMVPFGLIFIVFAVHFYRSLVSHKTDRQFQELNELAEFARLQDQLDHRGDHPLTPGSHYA

Row | inhibition at 0.5 µM (CRACM1/STIM1-CHOK1) [%] | IC50 (IL-2; activity class) [nM] | IC50 (IL-2; numeric values) [nM] | SMILES
1 | 70 to 100 | 50 to 100 | – | CC1=C(c2cnc(NC(=O)c3c(F)cccc3F)cn2)CN(c2nc(C)cs2)CC1 [Compound 1, 2,6-difluoro-N-(5-(4-methyl-1-(4-methylthiazol-2-yl)-1,2,5,6-tetrahydropyridin-3-yl)pyrazin-2-yl)benzamide]
2 | 70 to 100 | > 100 | – | CC1=C(c2cnc(NC(=O)c3c(F)cccc3F)cn2)CN(S(=O)(=O)N(C)C)CC1 [Compound 2]
3 | 70 to 100 | < 50 | – | CC1=C(c2ccc(NC(=O)c3cccc(F)c3F)cc2)CN(c2nccs2)CC1 [Compound 11, 2,3-difluoro-N-(4-(4-methyl-1-(thiazol-2-yl)-1,2,5,6-tetrahydropyridin-3-yl)phenyl)benzamide]
4 | – | – | 31 | CC1=C(c2cnc(NC(=O)c3c(F)cc(Br)cc3F)cn2)CN(c2ncccc2F)CC1 [Compound 44, 4-bromo-2,6-difluoro-N-(5-(1-(3-fluoropyridin-2-yl)-4-methyl-1,2,5,6-tetrahydropyridin-3-yl)pyrazin-2-yl) benzamide]
5 | – | – | 33 | CC1=C(c2ccc(NC(=O)c3c(C)cccc3F)cc2)CN(c2nnn(C)n2)CC1 [Compound 45, 2-fluoro-6-methyl-N-(4-(4-methyl-1-(2-methyl-2H-tetrazol-5-yl)-1,2,5,6-tetrahydropyridin-3-yl)phenyl) benzamide]
6 | – | – | 35 | COc1cccc(F)c1C(=O)Nc1cnc(C2=C(C)CCN(c3ncccc3F)C2)cn1 [Compound 46, 2-fluoro-N-(5-(1-(3-fluoropyridin-2-yl)-4-methyl-1,2,5,6-tetrahydropyridin-3-yl)pyrazin-2-yl)-6-methoxybenzamide]
7 | – | – | 35 | CCc1cnc(N2CCC(C)=C(c3cnc(NC(=O)c4c(F)cccc4F)cn3)C2)s1 [Compound 47, N-(5-(1-(5-ethylthiazol-2-yl)-4-methyl-1,2,5,6-tetrahydropyridin-3-yl)pyrazin-2-yl)-2,6-difluorobenzamide hydrochloride]
8 | – | – | 36 | CC1=C(c2cnc(NC(=O)c3c(F)cccc3Cl)cn2)CN(c2ncc(C)s2)CC1 [Compound 48, 2-chloro-6-fluoro-N-(5-(4-methyl-1-(5-methylthiazol-2-yl)-1,2,5,6-tetrahydropyridin-3-yl)pyrazin-2-yl)benzamide]
9 | – | – | 36 | CC1=C(c2cnc(NC(=O)c3cccc(F)c3Cl)cn2)CN(c2ncccc2F)CC1 [Compound 49, 2-chloro-3-fluoro-N-(5-(1-(3-fluoropyridin-2-yl)-4-methyl-1,2,5,6-tetrahydropyridin-3-yl)pyrazin-2-yl)benzamide]
10 | – | – | 37 | CC1=C(c2cnc(NC(=O)c3c(C)cccc3F)cn2)CN(c2ncc(C)s2)CC1 [Compound 50, 2-fluoro-6-methyl-N-(5-(4-methyl-1-(5-methylthiazol-2-yl)-1,2,5,6-tetrahydropyridin-3-yl)pyrazin-2-yl)benzamide]
11 | – | – | 37 | CC1=C(c2ccc(NC(=O)c3c(Cl)cncc3Cl)cc2)CN(c2ccccn2)CC1 [Compound 51, 3,5-dichloro-N-(4-(4-methyl-1-(pyridin-2-yl)-1,2,5,6-tetrahydropyridin-3-yl)phenyl)isonicotinamide]
12 | – | – | 40 | CC1=C(c2cnc(NC(=O)c3cccc(F)c3C)cn2)CN(c2ncc(C)s2)CC1 [Compound 52, 3-fluoro-2-methyl-N-(5-(4-methyl-1-(5-methylthiazol-2-yl)-1,2,5,6-tetrahydropyridin-3-yl)pyrazin-2-yl)benzamide hydrochloride]
13 | – | – | 40 | CC1=C(c2ccc(NC(=O)c3cc(F)ccc3C)nc2)CN(c2nnn(C)n2)CC1 [Compound 53, 5-fluoro-2-methyl-N-(5-(4-methyl-1-(2-methyl-2H-tetrazol-5-yl)-1,2,5,6-tetrahydropyridin-3-yl)pyridin-2-yl) benzamide]
14 | – | – | 40 | CC1=C(c2ccc(NC(=O)c3c(F)cccc3F)cc2)CN(c2nc(Cl)cs2)CC1 [Compound 54, N-(4-(1-(4-chlorothiazol-2-yl)-4-methyl-1,2,5,6-tetrahydropyridin-3-yl)phenyl)-2,6-difluorobenzamide]
15 | – | – | 41 | CC1=C(c2ccc(NC(=O)c3c(Cl)cncc3Cl)cc2)CN(c2ncccc2F)CC1 [Compound 55, 3,5-dichloro-N-(4-(1-(3-fluoropyridin-2-yl)-4-methyl-1,2,5,6-tetrahydropyridin-3-yl)phenyl)isonicotinamide]
16 | – | – | 41 | Cn1nnc(N2CCC(Cl)=C(c3ccc(NC(=O)c4c(F)cccc4Cl)cc3)C2)n1 [Compound 56, 2-chloro-N-(4-(4-chloro-1-(2-methyl-2H-tetrazol-5-yl)-1,2,5,6-tetrahydropyridin-3-yl)phenyl)-6-fluorobenzamide]
17 | – | – | 41 | CC1=C(c2ccc(NC(=O)c3c(C)cccc3Cl)cc2)CN(c2nnn(C)n2)CC1 [Compound 57, 2-chloro-6-methyl-N-(4-(4-methyl-1-(2-methyl-2H-tetrazol-5-yl)-1,2,5,6-tetrahydropyridin-3-yl)phenyl) benzamide]
18 | – | – | 44 | CC1=C(c2ccc(NC(=O)c3c(F)cccc3F)cc2)CN(c2cnccn2)CC1 [Compound 58, 2,6-difluoro-N-(4-(4-methyl-1-(pyrazin-2-yl)-1,2,5,6-tetrahydropyridin-3-yl)phenyl)benzamide]
19 | – | – | 44 | CC1=C(c2cnc(NC(=O)c3c(F)cccc3F)cn2)CN(c2nc(-c3cccnc3)cs2)CC1 [Compound 59, 2,6-difluoro-N-(5-(4-methyl-1-(4-(pyridin-3-yl)thiazol-2-yl)-1,2,5,6-tetrahydropyridin-3-yl)pyrazin-2-yl)benzamide]
20 | – | – | 46 | COc1cc(F)c(C(=O)Nc2cnc(C3=C(C)CCN(c4ncccc4F)C3)cn2)c(F)c1 [Compound 60, 2,6-difluoro-N-(5-(1-(3-fluoropyridin-2-yl)-4-methyl-1,2,5,6-tetrahydropyridin-3-yl)pyrazin-2-yl)-4-methoxybenzamide]
21 | – | – | 46 | C=CCOC(=O)N1CCC(C)=C(c2ccc(NC(=O)c3c(F)cccc3F)cc2)C1 [Compound 61, allyl 3-(4-(2,6-difluorobenzamido)phenyl)-4-methyl-5,6-dihydropyridine-1(2H)-carboxylate]
22 | – | – | 49 | Cn1nnc(N2CCC(Cl)=C(c3cnc(NC(=O)c4cc(F)ccc4Cl)cn3)C2)n1 [Compound 62, 2-chloro-N-(5-(4-chloro-1-(2-methyl-2H-tetrazol-5-yl)-1,2,5,6-tetrahydropyridin-3-yl)pyrazin-2-yl)-5-fluorobenzamide]
23 | – | – | 49 | CC1=C(c2cnc(NC(=O)c3ccc(F)cc3Cl)cn2)CN(c2ncccc2F)CC1 [Compound 63, 2-chloro-4-fluoro-N-(5-(1-(3-fluoropyridin-2-yl)-4-methyl-1,2,5,6-tetrahydropyridin-3-yl)pyrazin-2-yl) benzamide]
24 | – | – | 49 | CC1=C(c2ccc(NC(=O)c3c(F)cccc3F)cc2)CN(S(=O)(=O)N(C)C)CC1 [Compound 64, N-(4-(1-(N,N-dimethylsulfamoyl)-4-methyl-1,2,5,6-tetrahydropyridin-3-yl)phenyl)-2,6-difluorobenzamide]

— patent US20120183579A1, “COMPOUNDS FOR INFLAMMATION AND IMMUNE-RELATED USES” (Synta Pharmaceuticals Corp., priority 2008, published 2012)
